According to patent US11807685B2, “Anti-CD47 antibody and uses thereof” (THE UAB RESEARCH FOUNDATION, priority 2021, dated 2023):

Key:
MDA-MB-231 cells [1] = test: In vitro cytotoxicity assay (CellTiter-Glo); assay type: cell-based, human; settings: for cell viability: 3-day assay
Experimental: (§1) The 96-well plates were seeded with MDA-MB-231 and MDA-MB-468 cells at VCD of 5×10^5 cells/mL in 100 μL of DMEM/F12 complete medium with triplication. Then 100 μL of cell growth medium containing ADC or free drug was added to reach final concentrations of 0-200 nM and incubated in CO2 incubator for 72 hrs. The cytotoxicity of ADC or free drug was measured with CellTiter-Glo Luminescent Cell Viability Assay (Promega, Madison, […]) and reported as the relative viability using untreated cells as control. The IC50 value was calculated using ED50V10 Excel add-in.

MDA-MB-468 cells [2] = test: In vitro cytotoxicity assay (CellTiter-Glo); assay type: cell-based, human; settings: for cell viability: 3-day assay
Experimental: as §1

CD47 = test: Western blotting of CD47 in GC treated MDA-MB-231 cells; assay type: cell-based, human; settings: 10 nM for 3 weeks
Experimental: The non-reducing SDS-PAGE was run by loading 2 μg of mAb or ADC to Bolt™ 4 to 12%, Bis-Tris Mini Protein Gel (1.0 mm) to validate the purity and integrality of the produced anti-CD47 mAb and ADC. In Western blotting analysis, 30 μg of total cell lysis protein was loaded to gel and electro-transferred to PVDF membrane using PowerEase™ Touch 350 W Power Supply (Fisher). After blocking, the blotted membrane was probed using primary rabbit anti-mouse antibody and HRP-conjugated secondary anti-rabbit antibody (Abcam, Cambridge, UK). The blotted membrane was treated with Luminata Forte Western HRP substrate (Millipore, Boston, MA). The SDS-PAGE and Western blots were imaged with MyECL imager and quantified using ImageJ software.
The surface expression of CD47 in TNBC cell lines was analyzed using mass spectrometry (MS, Thermo Orbitrap Velos Pro) at the University of Alabama at Birmingham (UAB) MS and proteomics core facility. […] Furthermore, to confirm the CD47 upregulation by chemotherapy, we treated MDA-MB-231 cells with 10 nM GC for 3 weeks.

[3] = system: MDA-MB-231-FLuc xenograft; test: IVIS imaging of in vivo TNBC targeting; design: species or system mouse
Description: (§2) Human TNBC xenograft mouse model was generated by subcutaneously (s.c.) injecting 3×10^6 of MDA-MB-231-FLuc cells into the 6-week-old NSG (NOD scid gamma) female mice (Jackson Labs, Bar Harbor, ME). This immunocompromised model was used to evaluate the tumor targeting of our mAb and anti-TNBC efficacy of the constructed ADC. The immunocompetent mouse model was generated by injecting 1×10^6 of mouse TNBC 4T1-FLuc cells into the BALB/cJ female mice, which was used to analyze the tumoral immunity. Mice developed tumors within 2 weeks post cells injection.
When TNBC tumor volume reached approximately 100 mm^3, 50 μg of Cyanine 5.5 (Cy5.5, Lumiprobe, Hunt Valley, MD) labelled anti-CD47 mAb or 1.5 nmole Cy5.5 (control, similar amount as labelled Cy5.5 in mAb) was intravenously (i.v.) administrated via tail vein for TNBC-targeting analysis. Mice were imaged at 24 hrs post mAb injection under IVIS Lumina Series III (PerkinElmer, Waltham, MA) with wavelength of 660 nm/710 nm (excitation/emission) and exposure time of 10 seconds. Inhalation anesthesia was induced by delivering 3.5-4.5% isoflurane in oxygen to mice via respiratory system (nose cone), then maintained with a concentration of 1-2% during imaging procedure.

[4] = Whole blood analysis (HemaVet 950FS) in 4T1 xenograft BALB/cJ model; assay type: in vivo, mouse; settings: 8 mg/kg, after two weeks, BALB/cJ 4T1 xenograft
Description: The blood samples were extracted by cardiac puncture for whole blood analysis using HemaVet 950FS (Drew Scientific, Miami Lakes, FL). The leukocytes (white blood cell, neutrophil, lymphocyte, monocyte, eosnophils), erythrocytes (red blood cell, hemoglobin, mean corpuscular hemoglobin), and thrombocytes (platelet) were titrated to analyze the general peripheral immune response.
as §2
The general immune response to anti-CD47 mAb was also tested using whole blood analysis and flow cytometry analysis of lymph nodes in the 4T1 xenograft BALB/cJ model (n=4). The mice carrying 50 mm^3 xenograft were treated with 8 mg/kg anti-CD47 mAb. After two weeks, blood was collected through cardiac puncture. […] The lymph nodes were also harvested and dissociated for flow cytometry analysis of fresh cells. […]

lymph node immune cells = test: Flow cytometry analysis of immune cells in lymph nodes, 4T1 xenograft BALB/cJ model; assay type: in vivo, mouse; settings: 8 mg/kg, BALB/cJ 4T1 xenograft
Experimental: (§3) The flow cytometry was conducted to analyze anti-CD47 mAb's binding rate to TNBC cells and quantify the immune cells using a BD LSRII flow cytometer (BD Biosciences, San Jose, CA). In surface binding analysis, the produced CD47 mAb was labelled with an Alexa Fluor™ 647 labelling kit (Life Technologies, part of Fisher) and used to stain MDA-MB-468, MDA-MB-231, 4T1, and 184B5 cells with 5 μg of mAb-AF647 per million of cells at room temperature for 30 mins (Ou, J.; et al. PLOS ONE 2018; Si, Y.; et al. Pharmaceutics 2020, 12:1079-1090; Ou, J.; et al. J Biol Eng 2019, 13:34). The harvested lymph nodes were dissociated with Tissue Dissociation/Single Cell Isolation Kit (101 Bio LLC, Sunnyvale, CA) following manufacturing procedure, and stained with Cy5 anti-CD69 antibody, APC anti-CD11c antibody, or PE/Cy7 anti-CD4 antibody (BioLegend, San Diego, CA) for flow cytometry analysis.
as §2
The general immune response to anti-CD47 mAb was also tested using whole blood analysis and flow cytometry analysis of lymph nodes in the 4T1 xenograft BALB/cJ model (n=4). The mice carrying 50 mm^3 xenograft were treated with 8 mg/kg anti-CD47 mAb. After two weeks, blood was collected through cardiac puncture. […] The lymph nodes were also harvested and dissociated for flow cytometry analysis of fresh cells. […] In the future, a full investigation of immune function in tumor microenvironment is needed in order to delineate the possible anti-TNBC immunity of this mAb.

MDA-MB-231 cells [5] = test: Flow cytometry surface binding; design: species or system human; settings: MDA-MB-231, mAb-AF647, flow cytometry
Experimental: as §3

MDA-MB-468 cells [6] = test: Flow cytometry surface binding; design: species or system human; settings: MDA-MB-468, mAb-AF647, flow cytometry
Experimental: as §3

[7] = Toxicity in the efficacy study (body weight, H&E staining of organs); assay type: in vivo, mouse; settings: 8 and 24 mg/kg ADC, 8 mg/kg mAb, PBS; Q4Dx4
Experimental: […] […] Tumor volume was measured using an electronic caliper and calculated as “width×width×length/2” in mm. Body weight was measured every other day. The in vivo treatment study was ended after 21-day treatment which was determined based on our previous ADC treatment animal study (Si, Y.; et al. Eng Life Sci 2021, 21:37-44; Ou, J.; et al. PLoS One 2018, 13:e0206246; Xu, N.; et al. Biochemical Engineering Journal 2019, 145:177-185). At the end of the experiment, mice were euthanized and the TNBC tumors were collected to measure the wet weight.
The IHC and H&E staining were performed. In IHC staining, the paraffin-embedded slides were immersed in xylene followed by 3% H2O2 in PBS, and blocked with 3% normal goat serum. The rabbit anti-mouse CD11b mAb (Cell Signaling, Danvers, MA) and HRP-conjugated goat anti-rabbit IgG mAb were used to stain the macrophage in tumor tissue. After color development with DAB chromogen, the slides were counterstained with hematoxylin and dehydrated in absolute ethanol. In H&E staining, the embedded normal organ slides were dewaxed, hydrated with 100%-0% ETOH, immersed in hematoxylin solution, and rinsed with tap water and eosin. After equilibration in ethanol, the stained slides were dipped in Xylene and mounted with cytoseal Xyl.

[8] = system: normal breast 184B5 cells; test: Flow cytometry surface binding; settings: normal 184B5 cells, mAb-AF647, flow cytometry
Experimental: as §3

4T1 cells = test: Flow cytometry surface binding; settings: mouse TNBC 4T1, mAb-AF647, flow cytometry
Experimental: as §3

[9] = system: MDA-MB-231-FLuc xenograft; test: In vivo anti-TNBC efficacy study; design: species or system mouse; unit not given here; settings: 8 mg/kg i.v. Q4Dx4, terminal tumor; no significant difference to PBS group
Description: as §2
The TNBC MDA-MB-231-FLuc xenograft mice were treated with 16 mg/kg-BW of GC by intraperitoneal (IP) injection when tumor volume reached ˜50 mm^3. […] Tumor volume was measured using an electronic caliper and calculated as “width×width×length/2” in mm. Body weight was measured every other day. The in vivo treatment study was ended after 21-day treatment which was determined based on our previous ADC treatment animal study (Si, Y.; et al. Eng Life Sci 2021, 21:37-44; Ou, J.; et al. PLoS One 2018, 13:e0206246; Xu, N.; et al. Biochemical Engineering Journal 2019, 145:177-185). At the end of the experiment, mice were euthanized and the TNBC tumors were collected to measure the wet weight.

MDA-MB-468 cells [10] = test: Live-cell confocal imaging of internalization; assay type: cell-based, human; settings: AF647 labelled mAb
Description: Confocal microscopy imaging was collected to validate the targeting and internalization of anti-CD47 mAb in TNBC cells following our reported protocol (Si, Y.; et al. Cancer Gene Therapy. Cancer Gene Therapy 2020; Si, Y.; et al. Eng Life Sci 2021, 21:37-44; Ou, J.; et al. PLOS ONE 2018; Si, Y.; et al. Pharmaceutics 2020, 12:1079-1090; Si, Y.; et al. Biotechnol J 2019). Briefly, the MDA-MB-468 cells were stained with BacMam GFP Transduction Control, which expresses eGFP protein in cytoplasm, NucBlue Live ReadyProbes to stain nucleus, and AF647 labelled anti-CD47 mAb to target TNBC cells via surface receptor. The live-cell images were collected using a Nikon A1R-HD25 confocal microscope with a high-speed resonance scanner (Nikon USA, Melville, NY).

COc1cc2cc(c1Cl)N(C)C(=O)C[C@H](OC(=O)[C@H](C)N(C)C(=O)CCS)[C@]1(C)O[C@H]1[C@H](C)[C@@H]1C[C@@](O)(NC(=O)O1)[C@H](OC)/C=C/C=C(\C)C2 [DM1, mertansine]
cell viability (MDA-MB-231 cells [1]; MDA-MB-231, 25 nM): 94%
cell viability (MDA-MB-231 cells [1]; MDA-MB-231, 50 nM): 72%
cell viability (MDA-MB-231 cells [1]; MDA-MB-231, 100 nM): 53%
cell viability (MDA-MB-231 cells [1]; MDA-MB-231, 200 nM): 54%
IC50 (MDA-MB-231 cells [1]; MDA-MB-231, 72 hrs): 0.047 µM
cell viability (MDA-MB-468 cells [2]; MDA-MB-468, 25 nM): 56%
cell viability (MDA-MB-468 cells [2]; MDA-MB-468, 50 nM): 37%
cell viability (MDA-MB-468 cells [2]; MDA-MB-468, 100 nM): 32%
cell viability (MDA-MB-468 cells [2]; MDA-MB-468, 200 nM): 34%
IC50 (MDA-MB-468 cells [2]; MDA-MB-468, 72 hrs): 0.021 µM

Nc1ccn([C@@H]2O[C@H](CO)[C@@H](O)C2(F)F)c(=O)n1 [GC, gemcitabine]
CD47 expression (CD47): increased

Cyanine 5.5 [Cy5.5]
distribution in major organs (brain, heart, lung, spleen, kidney, liver) ([3]; 24 hrs post i.v. injection, IVIS): distributed in multiple locations such as brain, liver and kidney

B1: anti-CD47 mAb: anti-CD47 mAb (IgG2b/kappa) targeting the extracellular domain (Gln19-Glu141) of CD47; heavy chain SEQ ID NO:1, light chain SEQ ID NO:2 (antibody)
heavy: MLLGLKWVFFVVFYQGVHCEVQLVESGGGLVQPKGSLKLSCAASGFTFNTYAMNWVRQAPGKGLEWIARIRSKSNNYATYYADSMKDRFTISRDDSQSMLYLQMNNLKTEDTAMYYCVRPAQGAMDYWGHGTSVTVSSSKTTPPSVYPLAPGCGDTTGSSVTLGCLVKGYFPESVTVTWNSGSLSSSVHTFPALLQSGLYTMSSSVTVPSSTWPSQTVTCSVAHPASSTTVDKKLEPSGPISTINPCPPCKECHKCPAPNLEGGPSVFIFPPNIKDVLMISLTPKVTCVVVDVSEDDPDVQISWFVNNVEVHTAQTQTHREDYNSTIRVVSTLPIQHQDWMSGKEFKCKVNNKDLPSPIERTISKIKGLVRAPQVYILPPPAEQLSRKDVSLTCLVVGFNPGDISVEWTSNGHTEENYKDTAPVLDSDGSYFIYSKLNMKTSKWEKTDSFSCNVRHEGLKNYYLKKSFSRTPGK
light: MVFTPQILGLMLFWISASRGDIVLTQSPATLSVTPGDSVSLSCRASQRISNNLHWYQQKSHESPRLLIKYSSQSISGIPSRFSGSGSGTDFTLSINSVETEDFGMYFCQQSNAWPYTFGGGTKLEIRRADAAPTVSIFPPSSEQLTSGGASVVCFLNNFYPKDINVKWKIDGSERQNGVLNSWTDQDSKDSTYSMSSTLTLTKDEYERHNSYTCEATHKTSTSPIVKSFNRNEC
leukocytes, erythrocytes and thrombocytes counts vs PBS control group [4]: no obvious difference
CD11c+ DC cells in lymph nodes (lymph node immune cells; PBS control 5.44%): 8.49%
CD69+ NK cells in lymph nodes (lymph node immune cells; PBS control 6.55%): 10.3%
CD4+ T cells in lymph nodes (lymph node immune cells; PBS control 63.8%): 68.3%
surface binding (MDA-MB-231 cells [5]): 97.3%
surface binding (MDA-MB-468 cells [6]): 98.9%
overall body weight change among the four groups [7]: no obvious difference
surface binding [8]: 4.39%
surface binding (4T1 cells): 90.5%
tumor weight [9]: 307±76
time to internalization and localization in cytoplasm after mixing (MDA-MB-468 cells [10]): ≤ 60 min
time to targeting and accumulation in TNBC tumor post i.v. injection ([3]; mouse, in vivo, iv): ≤ 24 h
